Assay [1] deals with T1, Cholecystokinin receptor type A (Homo sapiens, UniProt P32238).
T1 sequence (P32238 whole entry): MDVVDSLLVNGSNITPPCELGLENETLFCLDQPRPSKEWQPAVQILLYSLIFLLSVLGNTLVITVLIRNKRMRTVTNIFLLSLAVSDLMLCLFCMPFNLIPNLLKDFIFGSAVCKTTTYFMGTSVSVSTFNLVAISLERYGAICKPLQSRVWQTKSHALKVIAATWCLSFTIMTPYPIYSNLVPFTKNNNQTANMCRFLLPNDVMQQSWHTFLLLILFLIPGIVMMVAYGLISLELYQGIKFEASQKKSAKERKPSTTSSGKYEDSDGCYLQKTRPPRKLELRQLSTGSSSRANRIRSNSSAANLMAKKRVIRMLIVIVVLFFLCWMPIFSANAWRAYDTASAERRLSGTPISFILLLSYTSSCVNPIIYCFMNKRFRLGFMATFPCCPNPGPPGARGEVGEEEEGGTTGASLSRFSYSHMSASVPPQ

Assay [2] has as its target T2, Amine oxidase [flavin-containing] A (Homo sapiens, UniProt P21397).
T2 sequence (P21397 whole entry): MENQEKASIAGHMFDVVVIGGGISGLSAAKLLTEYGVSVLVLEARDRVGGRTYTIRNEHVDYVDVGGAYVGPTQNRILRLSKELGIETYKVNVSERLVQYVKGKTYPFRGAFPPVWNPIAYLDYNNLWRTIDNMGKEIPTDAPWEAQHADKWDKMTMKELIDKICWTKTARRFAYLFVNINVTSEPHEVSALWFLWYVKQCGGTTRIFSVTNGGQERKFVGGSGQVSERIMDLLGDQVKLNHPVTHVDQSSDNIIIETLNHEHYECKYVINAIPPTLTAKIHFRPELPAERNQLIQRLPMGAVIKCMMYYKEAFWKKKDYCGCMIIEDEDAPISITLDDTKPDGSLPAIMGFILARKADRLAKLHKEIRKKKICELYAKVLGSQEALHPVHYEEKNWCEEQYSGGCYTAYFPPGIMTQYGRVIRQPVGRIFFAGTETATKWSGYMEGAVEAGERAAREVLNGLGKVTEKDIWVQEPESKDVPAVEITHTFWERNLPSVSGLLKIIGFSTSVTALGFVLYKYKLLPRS
It is filed as functional.

Assay [3] deals with cGMP-inhibited 3',5'-cyclic phosphodiesterase 3A (Homo sapiens, UniProt Q14432). It is filed as functional.
cGMP-inhibited 3',5'-cyclic phosphodiesterase 3A, sequence (Q14432 whole entry): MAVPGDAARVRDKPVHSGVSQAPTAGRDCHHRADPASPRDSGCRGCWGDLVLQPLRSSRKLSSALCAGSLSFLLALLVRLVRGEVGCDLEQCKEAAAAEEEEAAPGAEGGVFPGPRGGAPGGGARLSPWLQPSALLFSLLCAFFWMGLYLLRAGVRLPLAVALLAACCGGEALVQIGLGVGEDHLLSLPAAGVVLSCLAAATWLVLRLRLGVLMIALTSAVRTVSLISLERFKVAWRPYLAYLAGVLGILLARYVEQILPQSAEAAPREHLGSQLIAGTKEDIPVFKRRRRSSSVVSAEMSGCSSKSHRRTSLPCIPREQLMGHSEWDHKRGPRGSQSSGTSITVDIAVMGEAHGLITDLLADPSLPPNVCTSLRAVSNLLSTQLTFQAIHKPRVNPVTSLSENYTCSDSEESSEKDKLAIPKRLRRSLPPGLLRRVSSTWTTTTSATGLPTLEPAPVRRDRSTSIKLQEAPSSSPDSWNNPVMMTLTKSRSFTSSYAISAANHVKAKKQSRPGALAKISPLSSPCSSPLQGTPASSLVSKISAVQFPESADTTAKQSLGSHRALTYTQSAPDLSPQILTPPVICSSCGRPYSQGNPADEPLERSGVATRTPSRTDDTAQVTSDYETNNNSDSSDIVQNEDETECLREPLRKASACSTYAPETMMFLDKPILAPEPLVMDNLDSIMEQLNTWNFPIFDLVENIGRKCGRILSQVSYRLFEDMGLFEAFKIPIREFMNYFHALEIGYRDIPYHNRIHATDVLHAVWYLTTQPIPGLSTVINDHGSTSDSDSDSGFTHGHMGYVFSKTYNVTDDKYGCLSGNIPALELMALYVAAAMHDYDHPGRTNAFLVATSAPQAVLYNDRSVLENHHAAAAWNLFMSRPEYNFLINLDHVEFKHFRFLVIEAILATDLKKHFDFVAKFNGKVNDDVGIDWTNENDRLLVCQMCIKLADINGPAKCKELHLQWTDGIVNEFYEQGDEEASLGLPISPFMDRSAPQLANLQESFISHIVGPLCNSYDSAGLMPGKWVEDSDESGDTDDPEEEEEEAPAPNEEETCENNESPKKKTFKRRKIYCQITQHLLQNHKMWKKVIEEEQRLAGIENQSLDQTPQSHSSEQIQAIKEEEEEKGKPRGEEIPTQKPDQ
Assay [4] has as its target Gamma-aminobutyric acid receptor subunit alpha-1 (Rattus norvegicus, UniProt P62813). It is filed as functional.
The next assay has as its target Adenosine receptor A2a (Homo sapiens, UniProt P29274).
The target of assay [5] is 5-hydroxytryptamine receptor 2B (Homo sapiens, UniProt P41595). It is filed as functional, cell-based.
5-hydroxytryptamine receptor 2B, sequence (P41595 whole entry): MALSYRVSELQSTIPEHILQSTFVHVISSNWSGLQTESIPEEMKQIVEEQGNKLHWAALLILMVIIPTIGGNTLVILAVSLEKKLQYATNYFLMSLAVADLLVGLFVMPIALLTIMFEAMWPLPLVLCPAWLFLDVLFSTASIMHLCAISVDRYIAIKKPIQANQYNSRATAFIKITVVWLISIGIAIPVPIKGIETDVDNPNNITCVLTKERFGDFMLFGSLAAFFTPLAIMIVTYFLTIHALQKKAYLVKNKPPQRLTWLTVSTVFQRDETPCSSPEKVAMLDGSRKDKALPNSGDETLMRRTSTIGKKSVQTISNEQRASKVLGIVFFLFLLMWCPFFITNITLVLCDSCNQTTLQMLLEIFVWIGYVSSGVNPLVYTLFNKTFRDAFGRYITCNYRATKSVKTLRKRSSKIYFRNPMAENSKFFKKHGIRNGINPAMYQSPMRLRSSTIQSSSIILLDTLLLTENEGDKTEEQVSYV
Assay [6] concerns the target Delta-type opioid receptor (Homo sapiens, UniProt P41143).
For assay [7], the target named is T3, Alpha-2A adrenergic receptor (Homo sapiens, UniProt P08913).
T3 sequence (P08913 whole entry): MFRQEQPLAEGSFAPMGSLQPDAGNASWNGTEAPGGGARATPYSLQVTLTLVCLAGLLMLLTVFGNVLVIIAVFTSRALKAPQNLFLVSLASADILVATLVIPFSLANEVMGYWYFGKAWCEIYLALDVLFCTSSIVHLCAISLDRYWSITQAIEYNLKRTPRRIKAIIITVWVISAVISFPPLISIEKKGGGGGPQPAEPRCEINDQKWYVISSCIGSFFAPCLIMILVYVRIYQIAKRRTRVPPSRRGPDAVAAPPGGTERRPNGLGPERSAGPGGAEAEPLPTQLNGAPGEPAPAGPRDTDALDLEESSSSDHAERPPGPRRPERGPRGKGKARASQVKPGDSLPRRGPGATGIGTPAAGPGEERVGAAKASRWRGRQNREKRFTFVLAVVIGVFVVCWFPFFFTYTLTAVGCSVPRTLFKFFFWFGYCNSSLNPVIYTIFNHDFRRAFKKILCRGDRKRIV
It is filed as functional, cell-based.

Assay [8] addresses T4, 5-hydroxytryptamine receptor 3A (Homo sapiens, UniProt P46098).
T4 sequence (P46098 whole entry): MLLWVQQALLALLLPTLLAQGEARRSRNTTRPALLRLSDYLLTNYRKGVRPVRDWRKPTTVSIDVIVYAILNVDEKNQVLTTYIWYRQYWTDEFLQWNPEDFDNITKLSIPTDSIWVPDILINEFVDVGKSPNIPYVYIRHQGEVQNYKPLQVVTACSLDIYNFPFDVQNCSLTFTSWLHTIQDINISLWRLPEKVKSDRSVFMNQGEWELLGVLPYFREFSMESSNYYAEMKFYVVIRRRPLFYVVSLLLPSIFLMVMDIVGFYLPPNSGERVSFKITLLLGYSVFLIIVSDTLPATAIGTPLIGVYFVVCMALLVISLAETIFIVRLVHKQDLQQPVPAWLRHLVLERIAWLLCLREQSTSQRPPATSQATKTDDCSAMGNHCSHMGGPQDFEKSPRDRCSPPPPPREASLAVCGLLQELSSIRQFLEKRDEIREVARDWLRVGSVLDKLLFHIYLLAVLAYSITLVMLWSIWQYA
It is filed as functional.

The target of assay [9] is T5, Prostaglandin G/H synthase 1 (Rattus norvegicus, UniProt Q63921).
T5 sequence (Q63921 whole entry): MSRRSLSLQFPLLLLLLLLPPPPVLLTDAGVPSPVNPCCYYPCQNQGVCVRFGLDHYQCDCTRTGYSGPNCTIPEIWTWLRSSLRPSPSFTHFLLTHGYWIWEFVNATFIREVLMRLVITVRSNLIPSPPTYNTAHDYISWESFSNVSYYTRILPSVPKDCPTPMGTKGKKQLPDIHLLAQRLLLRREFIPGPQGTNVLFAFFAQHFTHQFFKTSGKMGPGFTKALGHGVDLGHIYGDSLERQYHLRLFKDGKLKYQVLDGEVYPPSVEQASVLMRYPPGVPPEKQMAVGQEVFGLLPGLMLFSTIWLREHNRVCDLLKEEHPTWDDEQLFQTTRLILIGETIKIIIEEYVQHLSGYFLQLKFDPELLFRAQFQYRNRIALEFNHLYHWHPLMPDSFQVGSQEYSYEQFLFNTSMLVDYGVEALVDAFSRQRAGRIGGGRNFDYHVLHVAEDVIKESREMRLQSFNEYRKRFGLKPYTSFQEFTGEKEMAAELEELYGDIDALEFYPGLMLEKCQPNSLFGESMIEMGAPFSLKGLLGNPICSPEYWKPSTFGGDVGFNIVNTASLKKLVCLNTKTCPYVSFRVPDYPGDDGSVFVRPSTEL
It is filed as functional.

In assay [10] the target is Voltage-gated inwardly rectifying potassium channel KCNH2 (Homo sapiens, UniProt Q12809). It is filed as functional. To be noted: read-out: AC50.
Voltage-gated inwardly rectifying potassium channel KCNH2, sequence (Q12809 whole entry): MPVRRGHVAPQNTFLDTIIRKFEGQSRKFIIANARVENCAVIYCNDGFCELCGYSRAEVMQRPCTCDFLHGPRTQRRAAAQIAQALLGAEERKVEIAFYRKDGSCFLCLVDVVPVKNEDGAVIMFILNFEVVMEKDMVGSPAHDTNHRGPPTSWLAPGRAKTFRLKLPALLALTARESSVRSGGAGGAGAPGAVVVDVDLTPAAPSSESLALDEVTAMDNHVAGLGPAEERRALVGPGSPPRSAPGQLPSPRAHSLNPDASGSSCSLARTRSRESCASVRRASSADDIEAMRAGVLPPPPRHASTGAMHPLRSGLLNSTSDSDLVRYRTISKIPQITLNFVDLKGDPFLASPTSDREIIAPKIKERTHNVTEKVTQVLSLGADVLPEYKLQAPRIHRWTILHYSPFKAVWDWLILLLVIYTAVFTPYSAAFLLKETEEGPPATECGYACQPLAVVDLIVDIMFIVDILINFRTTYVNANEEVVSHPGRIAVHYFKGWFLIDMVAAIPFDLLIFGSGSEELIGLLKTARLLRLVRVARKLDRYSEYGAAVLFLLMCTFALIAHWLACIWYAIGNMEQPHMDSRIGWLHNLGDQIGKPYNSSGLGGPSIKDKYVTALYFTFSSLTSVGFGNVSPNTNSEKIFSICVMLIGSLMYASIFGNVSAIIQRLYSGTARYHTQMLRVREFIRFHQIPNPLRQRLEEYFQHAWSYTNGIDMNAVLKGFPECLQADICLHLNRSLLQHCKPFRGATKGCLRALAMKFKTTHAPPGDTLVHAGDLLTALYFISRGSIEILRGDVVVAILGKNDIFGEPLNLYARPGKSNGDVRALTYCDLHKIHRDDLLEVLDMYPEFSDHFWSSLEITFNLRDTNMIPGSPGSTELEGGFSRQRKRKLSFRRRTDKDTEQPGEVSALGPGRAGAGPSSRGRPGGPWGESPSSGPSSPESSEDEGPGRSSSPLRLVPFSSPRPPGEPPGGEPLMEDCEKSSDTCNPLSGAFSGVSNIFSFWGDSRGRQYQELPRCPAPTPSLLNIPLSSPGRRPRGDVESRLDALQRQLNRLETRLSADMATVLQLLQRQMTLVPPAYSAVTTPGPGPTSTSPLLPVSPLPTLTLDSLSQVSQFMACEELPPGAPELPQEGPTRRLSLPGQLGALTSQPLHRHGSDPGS
Assay [11] deals with T3, Alpha-2A adrenergic receptor. It is filed as functional, cell-based. This is another data set of the same source.

Experimental findings from ChEMBL document CHEMBL5291721, “A preclinical secondary pharmacology resource illuminates target-adverse drug reaction associations of marketed drugs” (Nat Commun, 2023) are described below.
Further: assay procedure not described here.

Adenosine receptor A2a, sequence (P29274 whole entry): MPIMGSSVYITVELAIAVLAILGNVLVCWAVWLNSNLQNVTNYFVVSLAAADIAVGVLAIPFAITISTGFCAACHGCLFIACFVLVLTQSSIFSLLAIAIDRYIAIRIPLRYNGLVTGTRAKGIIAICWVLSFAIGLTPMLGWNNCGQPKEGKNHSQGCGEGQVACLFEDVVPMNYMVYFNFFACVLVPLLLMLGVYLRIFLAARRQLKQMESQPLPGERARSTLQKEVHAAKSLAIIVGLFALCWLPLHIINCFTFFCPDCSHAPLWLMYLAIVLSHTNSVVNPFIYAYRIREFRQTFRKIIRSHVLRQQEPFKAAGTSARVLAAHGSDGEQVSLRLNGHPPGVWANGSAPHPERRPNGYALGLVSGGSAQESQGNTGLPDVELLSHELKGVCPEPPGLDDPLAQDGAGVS
Gamma-aminobutyric acid receptor subunit alpha-1, sequence (P62813 whole entry): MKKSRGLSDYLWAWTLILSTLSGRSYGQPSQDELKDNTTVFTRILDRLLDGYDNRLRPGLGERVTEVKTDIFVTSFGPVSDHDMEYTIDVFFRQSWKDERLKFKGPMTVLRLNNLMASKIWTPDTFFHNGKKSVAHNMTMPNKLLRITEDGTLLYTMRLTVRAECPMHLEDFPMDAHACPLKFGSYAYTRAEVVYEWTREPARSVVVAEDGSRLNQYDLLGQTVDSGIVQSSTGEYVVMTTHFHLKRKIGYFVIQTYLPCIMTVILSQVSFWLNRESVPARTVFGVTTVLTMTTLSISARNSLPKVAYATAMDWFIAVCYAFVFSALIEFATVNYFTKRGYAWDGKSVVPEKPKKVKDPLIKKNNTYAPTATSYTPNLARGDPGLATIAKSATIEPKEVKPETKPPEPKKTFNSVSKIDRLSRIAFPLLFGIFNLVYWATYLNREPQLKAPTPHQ
Delta-type opioid receptor, sequence (P41143 whole entry): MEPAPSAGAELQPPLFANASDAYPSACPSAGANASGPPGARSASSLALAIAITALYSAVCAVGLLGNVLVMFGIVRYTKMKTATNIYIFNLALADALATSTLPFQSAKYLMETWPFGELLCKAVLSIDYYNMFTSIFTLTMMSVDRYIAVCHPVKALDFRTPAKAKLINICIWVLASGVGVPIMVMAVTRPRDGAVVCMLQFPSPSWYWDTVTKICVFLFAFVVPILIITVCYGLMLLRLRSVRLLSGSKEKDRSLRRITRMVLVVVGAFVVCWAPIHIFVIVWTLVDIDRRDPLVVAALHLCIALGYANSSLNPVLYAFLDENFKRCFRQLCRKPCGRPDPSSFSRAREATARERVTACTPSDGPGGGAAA

Regarding `COc1cc2c(cc1OC)C1CC(=O)C(CC(C)C)CN1CC2` (stereo not given) [TETRABENAZINE], the AC50 in [1] was > 30 µM; in [2] it was > 30 µM; in assay [3] it was > 30 µM; in assay [4] it was > 30 µM; on Adenosine receptor A2a, > 30 µM; in [5] it was 8.6 µM. Further, the AC50 in assay [6] was > 30 µM; in assay [7] it was > 30 µM; in [8] it was > 30 µM; in assay [9] it was > 30 µM; in [10], > 30 µM; in assay [11], 18 µM.

With `CCN(CC)CCn1c(=O)c(Cc2ccc(OC)cc2)nc2ccccc21` [CAROVERINE], the AC50 was > 30 µM in assay [1]; > 30 µM in [2]; > 30 µM in assay [3]; 19 µM in assay [4]; > 30 µM on Adenosine receptor A2a; > 30 µM in assay [5]. The concentration at half-maximal activity (AC50) in assay [6] is 26 µM; in [7], > 30 µM; in assay [8], 29 µM; in [9], 15.8 µM; in [10] it was 0.16 µM; in [11], > 30 µM.

Regarding `CN(C)CCN(Cc1ccccc1)c1ccccn1` [TRIPELENNAMINE], the AC50 (in assay [1]; in assay [2]; in [3]; in assay [4]; on Adenosine receptor A2a; in assay [5]) was > 10 µM throughout. The AC50 in [6] is > 30 µM; in assay [7] it was > 10 µM; in assay [8] it was > 30 µM; in assay [9], > 10 µM; in assay [10], 2.8 µM; in assay [11] it was > 10 µM.

Take `NCCCCCC(=O)O` [AMINOCAPROIC ACID]: the AC50 was > 10 µM in [1]; > 10 µM in [2]; > 30 µM in [3]; > 10 µM in [4]; > 10 µM on Adenosine receptor A2a; > 10 µM in assay [5]. The AC50 is > 30 µM in assay [6]; > 10 µM in [7]; > 30 µM in [8]; > 10 µM in assay [9]; > 30 µM in assay [10]; > 10 µM in assay [11].

As for `C[C@]12CCC(=O)C=C1CC[C@H]1[C@@H]3CC[C@](O)(C(=O)CO)[C@@]3(C)C[C@H](O)[C@@]12F` [FLUDROCORTISONE], the AC50 in assay [1] is > 30 µM; in assay [2] it was > 10 µM; in [3], > 30 µM; in assay [4] it was > 10 µM; on Adenosine receptor A2a it was > 30 µM; in [5], > 10 µM. For the same molecule, the AC50 is > 30 µM in assay [6]; > 10 µM in [7]; > 30 µM in assay [8]; > 30 µM in assay [9]; > 30 µM in assay [10]; > 10 µM in assay [11].

`c1cnc2cc3c(cc2n1)[C@@H]1CNC[C@H]3C1` [VARENICLINE]: the AC50 (in assay [1]; in [2]; in [3]; in assay [4]; at Adenosine receptor A2a; in assay [5]) was > 30 µM throughout. Further, the AC50 in [6] is > 30 µM; in [7] it was > 30 µM; in [8] it was 13 µM; in [9], > 30 µM; in assay [10], > 30 µM; in assay [11], > 30 µM.

Consider `Cc1c(C)c2c(c(C)c1O)CCC(C)(COc1ccc(CC3SC(=O)NC3=O)cc1)O2` (stereo not given) [TROGLITAZONE], for which the AC50 is > 30 µM in assay [1]; > 30 µM in [2]; 6.19 µM in assay [3]; > 30 µM in [4]; > 30 µM at Adenosine receptor A2a; 2 µM in assay [5]. Also, the AC50 in assay [6] was > 30 µM; in assay [7] it was > 30 µM; in [8], > 30 µM; in assay [9] it was 22.9 µM; in assay [10], > 30 µM; in assay [11], > 30 µM.

With `N[C@@H](Cc1cc(I)c(Oc2cc(I)c(O)c(I)c2)c(I)c1)C(=O)O` [LEVOTHYROXINE], the AC50 (in assay [1]; in assay [2]; in assay [3]; in [4]; at Adenosine receptor A2a; in assay [5]) was > 30 µM each time. Also, the AC50 in [6], in assay [7], in [8], in assay [9], in assay [10] and in assay [11] was > 30 µM throughout.

As for `CCOC(=O)[C@H](CCc1ccccc1)N[C@@H](C)C(=O)N1Cc2ccccc2C[C@H]1C(=O)O`, the AC50 is > 30 µM in [1]; > 10 µM in assay [2]; > 10 µM in assay [3]; > 10 µM in [4]; > 30 µM on Adenosine receptor A2a; > 10 µM in [5]. Further, the AC50 in assay [6] is > 10 µM; in assay [7] it was > 10 µM; in assay [8], > 10 µM; in [9], > 30 µM; in assay [10] it was > 30 µM; in assay [11], > 10 µM.

As for `CNC1(C)C2CCC(C2)C1(C)C` (stereo not given) [MECAMYLAMINE], the AC50 in [1] was > 10 µM; in assay [2], > 10 µM; in assay [3] it was > 30 µM; in [4], > 10 µM; at Adenosine receptor A2a, > 10 µM; in [5], > 10 µM. Also, the concentration at half-maximal activity (AC50) in assay [6] is > 30 µM; in [7], > 10 µM; in [8], > 30 µM; in assay [9], > 10 µM; in assay [10], > 30 µM; in [11], > 10 µM.

Broadly, the AC50 is the concentration at which the activity in the assay is half-maximal.
